We go through two molecules from ChEMBL document CHEMBL1201862, “PubChem BioAssay data set” (2004).

Each structure is given as a SMILES string.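 Cells were grown in 96-well plates and exposed to each compound for 48 hours at five concentrations; endpoints were interpolated linearly between bracketing concentrations, or set to the highest concentration if not reached. Abbreviation: GI50, concentration required for 50% inhibition of growth.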 Activity calls are given as the source filed them. Rule as the data show it: active = GI50 up to about 1.1 µM and inactive = higher.

Some test systems named below: LXFL 529; ACHN; SF-539; TK-10; HCT-15; SF-268; IGROV-1; OVCAR-8; SF-295; HT-29; M14; CAKI-1; A549; HOP-92; SR; MOLT-4; NCI-H522; KM12; A498; U-251.
Test in all cases: growth of human tumour cells (NCI), 48 h

In the case of `Nn1c(S)nnc1N/N=C1/C(=O)Nc2ccccc21`, the GI50 in the assay on LXFL 529 was 39.5 µM (inactive); in the assay on ACHN it was 83.8 µM (inactive); with SF-539 it was 94 µM (inactive); in the assay with TK-10 it was > 100 µM (inactive); in the assay on HCT-15, 57.7 µM; with SF-268, 56 µM (inactive). For the same molecule, the GI50 with IGROV-1 is 59.2 µM (inactive); in the assay on OVCAR-8, 49.5 µM (inactive); in the assay on SF-295, 82.8 µM (inactive); in the assay with HT-29 it was > 100 µM (inactive); in the assay with M14, 62.1 µM (inactive); in the assay on CAKI-1, 52.6 µM (inactive). Besides, the GI50 in the assay on A549 was 83.2 µM (inactive); with HOP-92, 56.1 µM (inactive); in the assay on SR it was 39.6 µM (inactive); in the assay with MOLT-4 it was 30.7 µM (inactive); with NCI-H522, 44.9 µM (inactive); in the assay with KM12, 92.3 µM (inactive). Moreover, the figures for the GI50 in the assay with A498 and in the assay with U-251 were 92.3 µM (inactive) and 58.3 µM (inactive), respectively.
For the molecule `CCOC(=O)/C(=C/c1cccc(C#N)c1)N(CC)CC`, the GI50 with LXFL 529 is > 100 µM (inactive); with ACHN it was > 100 µM (inactive); in the assay on SF-539 it was > 100 µM (inactive); in the assay on TK-10, > 100 µM (inactive); in the assay on HCT-15, greater than 100 µM; with SF-268, > 100 µM (inactive). Also, the GI50 with IGROV-1, in the assay with OVCAR-8, in the assay with SF-295, with HT-29, in the assay on M14 and in the assay on CAKI-1 was > 100 µM (inactive) throughout. For the same molecule, the GI50 in the assay on A549, in the assay on HOP-92, in the assay with SR, with MOLT-4, with NCI-H522 and in the assay on KM12 was > 100 µM (inactive) in each case. Also, the GI50 in the assay with A498 and in the assay on U-251 was > 100 µM (inactive) each time.
